According to the NIST ThermoML archive (doi:10.1016/j.fluid.2006.03.020):
± gives the expanded uncertainty stated by the source.

Test: excess molar enthalpy (molar enthalpy of mixing); xn = mol fraction of the nth substance listed
Conditions: 303.15 K, 101 kPa, Liquid, Flow calorimetry

C1COCCO1 [1,4-dioxane] + CCCCCCCC
Conditions	excess molar enthalpy [kcal/mol]
x1 = 0.0577	0.0985 ± 0.00287
x1 = 0.1002	0.161 ± 0.00311
x1 = 0.151	0.228 ± 0.00311
x1 = 0.2075	0.291 ± 0.00335
x1 = 0.2491	0.334 ± 0.00359
x1 = 0.3048	0.376 ± 0.00382
x1 = 0.3676	0.4156 ± 0.00406
x1 = 0.4092	0.4316 ± 0.00406
x1 = 0.4536	0.4479 ± 0.00406
x1 = 0.507	0.4522 ± 0.00406
x1 = 0.5583	0.4529 ± 0.00406
x1 = 0.6089	0.4381 ± 0.00406
x1 = 0.6599	0.4195 ± 0.00406
x1 = 0.6959	0.4001 ± 0.00382
x1 = 0.7553	0.3599 ± 0.00359
x1 = 0.8045	0.314 ± 0.00359
x1 = 0.8586	0.248 ± 0.00335
x1 = 0.8997	0.192 ± 0.00311
x1 = 0.9352	0.131 ± 0.00311

C1COCCO1 [1,4-dioxane] + C1CCCCC1
Conditions	excess molar enthalpy [kcal/mol]
x1 = 0.0547	0.0884 ± 0.00287
x1 = 0.153	0.211 ± 0.00311
x1 = 0.2558	0.302 ± 0.00335
x1 = 0.3916	0.3674 ± 0.00359
x1 = 0.5072	0.38 ± 0.00382
x1 = 0.6511	0.346 ± 0.00359
x1 = 0.7029	0.315 ± 0.00335
x1 = 0.7606	0.269 ± 0.00335
x1 = 0.8499	0.189 ± 0.00311
x1 = 0.9288	0.097 ± 0.00287

CCCCCCCC [octane] + C1CCCCC1
Conditions	excess molar enthalpy [kcal/mol]
x1 = 0.0275	0.0124 ± 0.00239
x1 = 0.0507	0.0191 ± 0.00239
x1 = 0.0896	0.0301 ± 0.00239
x1 = 0.1482	0.0413 ± 0.00239
x1 = 0.1912	0.0492 ± 0.00239
x1 = 0.2487	0.055 ± 0.00239
x1 = 0.2922	0.0588 ± 0.00239
x1 = 0.3709	0.0619 ± 0.00239
x1 = 0.4676	0.0617 ± 0.00239
x1 = 0.5738	0.0574 ± 0.00239
x1 = 0.642	0.0516 ± 0.00239
x1 = 0.7256	0.043 ± 0.00239
x1 = 0.79	0.0356 ± 0.00239
x1 = 0.8267	0.0296 ± 0.00239
x1 = 0.869	0.0237 ± 0.00239
x1 = 0.8976	0.0179 ± 0.00239
